Molecules are shown by their SMILES.

Data set [1] is described as follows: Storage stability (related substance identification test). Format: physicochemical. The settings on record: for storage stability: stored at −2 to 8° C., in % (unit assumed). The source says:
An attempt was made to evaluate the storage stability over time of the compound of Example 7 of the present invention and the compound of Comparative Example 1 (which is the deuterium-unsubstituted form of the compound of Example 7) depending on the presence of deuterium substitution.

Data set [2] is described as follows: Pharmacokinetics in rats according to deuterium substitution. Format: in vivo. The settings on record: male rats, oral 10 mg/kg; for concentration at 0.5 h / concentration at 1 h / concentration at 2 h / concentration at 5 h / concentration at 8 h: Sprague-Dawley, rat, plasma, read-out: Blood concentration; for concentration at 0.5 h: 0.5 hr after administration; for concentration at 1 h: 1 hr after administration; for concentration at 2 h: 2 hr after administration; for concentration at 5 h: 5 hr after administration; for concentration at 8 h: 8 hr after administration. As for the experimental part: In order to evaluate the impact on the deuterium substituent in terms of pharmacokinetics, the blood concentrations of Example 35 and Comparative Example 2 in rats were measured and compared. Six male rats (Sprague-Dawley Rats) were obtained, acclimatized, and then distributed into two groups with three rats per test group. As feed, irradiated solid feed was allowed to be freely consumed, and, as water, tap water disinfected with an ultraviolet sterilizer and micro-filtration device was placed in a polycarbonate drinking bottle and allowed to be freely consumed. Rats were raised in an animal breeding area maintained at a temperature of 23±3° C., with a relative humidity of 50±20%, a ventilation frequency of 10 to 15 times/hr, for a lighting time of 12 hours (lights on at 8 a.m. to lights off at 8 p.m.), and with an illuminance of 150 to 300 Lux.
Blood samples were obtained from the jugular vein at 0.5, 1, 2, 5, and 8 hours after drug administration, respectively. Blood samples were centrifuged (2 to 8° C., 3,200 g, 10 minutes) to obtain plasma. The amount of administered compound into the plasma sample was quantified by using LC-MS/MS.

Data set [3] concerns rats (Sprague-Dawley Rats). The experiment in a line: Acute oral toxicity in rats. Type of data set: in vivo. The conditions noted are these: female rats. The text has this:
An attempt was made to evaluate the acute toxicity of the compound of Example 7 on the fumarate form (Example 41). Twenty female rats (Sprague-Dawley Rats) were obtained, acclimatized, and distributed into a total of four groups, five rats per test group. As feed, irradiated solid feed was allowed to be freely consumed, and, as water, tap water disinfected with an ultraviolet sterilizer and micro-filtration device was placed in a polycarbonate drinking bottle and allowed to be freely consumed. Rats were raised in an animal breeding area maintained at a temperature of 23±3° C., with a relative humidity of 50±20%, a ventilation frequency of 10 to 15 times/hr, for a lighting time of 12 hours (lights on at 8 a.m. to lights off at 8 p.m.), and with an illuminance of 150 to 300 Lux. As the administration, oral administration, the clinically planned route, was selected for evaluation, and, as the administration dose, the highest dose was set at 600 mg/kg, referring to the results of vonoprazan.

Consider `CNCc1cc(-c2ccccc2F)n(S(=O)(=O)c2ccc(F)cc2)c1` [Comparative Example 1, reference compound], for which the “storage stability, Results” value in data set [1] (stored at −2 to 8° C. for 3 months) was “Unstable”. The storage stability in data set [1] (1st week) worked out at 90.61; in data set [1] (2nd week) it was 81.40; in data set [1] (3 months) it was 53.8; in data set [1] (3rd week), 76.47; in data set [1] (4th week), 70.39; in data set [1] (Initial) it was 97.99.
Consider `CNCc1cn(S(=O)(=O)c2cccnc2)c(-c2ccc(F)cc2F)c1OC` [Comparative Example 2, reference compound], for which, in data set [2], the concentration at 0.5 h was 59.7 ng/mL, the concentration at 1 h is 116 ng/mL, the concentration at 2 h is 83.8 ng/mL and the concentration at 5 h stood at 12.8 ng/mL. In addition, in data set [2], the concentration at 8 h turned out to be 5.1 ng/mL.
On to `[2H]C([2H])([2H])NCc1cn(S(=O)(=O)c2cccnc2)c(-c2ccc(F)cc2F)c1OC` [Example 35, N-((5-(2,4-difluorophenyl)-4-methoxy-1-(pyridin-3-ylsulfonyl)-1H-pyrrol-3-yl)methyl)methan-d3-amine], for which, in data set [2], the concentration at 0.5 h was determined as 302 ng/mL, the concentration at 1 h was found to be 254 ng/mL, the concentration at 2 h was 199 ng/mL and the concentration at 5 h is 22.6 ng/mL. Moreover, the concentration at 8 h in data set [2] amounted to 4.8 ng/mL. The “blood concentration level higher as compared to Comparative Example 2” value in data set [2] (0.5 hours after administration) worked out at 5 times. For the same molecule, in data set [2] (after 1 hour), the “blood concentration level higher as compared to Comparative Example 2” value is recorded as “at least 2 times”. Moreover, the “blood concentration level higher as compared to Comparative Example 2” value in data set [2] (after 2 hours) is on record as “at least 2 times”.
For the molecule `O=C(O)/C=C/C(=O)O.[2H]C([2H])([2H])NCc1cc(-c2ccccc2F)n(S(=O)(=O)c2ccc(F)cc2)c1` [Example 41, N-((5-(2-fluorophenyl)-1-((4-fluorophenyl)sulfonyl)-1H-pyrrol-3-yl)methyl)methane-d3-amine Fumarate], the “Survival rate (%)” value came to 100% in data set [3] (single oral dose 50 mg/kg), 100% in data set [3] (single oral dose 200 mg/kg), 100% in data set [3] (single oral dose 400 mg/kg) and 0% in data set [3] (single oral dose 600 mg/kg).
